Test results taken from patent US20260199364A1, “USE OF A SYK INHIBITOR FOR THE TREATMENT OF SICKLE CELL DISEASE” (Rigel Pharmaceuticals, Inc., priority 2023, published 2026).
In brackets after ≈: the same amount, converted by molar mass.

Legend:
[1] = water solubility in aqueous buffer under physiological conditions; conditions: for solubility: aqueous buffer
[2] = oral bioavailability of phosphate prodrug versus active drug; format: in vivo; conditions: prodrug with progroup —CH2—O—P(O)(OH)2 compared with Compound 1

COc1cc(Nc2ncc(F)c(Nc3ccc4c(n3)N(COP(=O)(O)O)C(=O)C(C)(C)O4)n2)cc(OC)c1OC [Compound 4]
solubility [1]: > 5000 µg/mL
solubility relative to active drug (Compound 1) ([1]; aqueous buffer under physiological conditions, prodrug vs Compound 1): approximately 2000 times greater
oral bioavailability [2]: increased dramatically

COc1cc(Nc2ncc(F)c(Nc3ccc4c(n3)NC(=O)C(C)(C)O4)n2)cc(OC)c1OC [Compound 1, N4-(2,2-Dimethyl-3-oxo-4H-5-pyrid[1,4]oxazin-6-yl)-5-fluoro-N2-(3,4,5-trimethoxyphenyl)-2,4-pyrimidinediamine]
solubility [1]: 1 to 2 µg/mL (≈ 2.13 to 4.25 µM)
